From patent US20250170154A1 (GreenStone Biosciences, Inc., priority 2023, published 2025)
Where two headings read alike, the source gives them in different places.

Experiments:
[1] = Conjugate formation in intestinal S9 incubations; type: in vitro ADME, human, rat, mouse
Method: The stability of compounds 1 and 2, and the control compound 7-hydroxycoumarin, were measured using human, rat, and mouse intestinal S9 fractions (Xenotech). Test compound working solutions were prepared by diluting 5 μL of 10 mM stock solutions in DMSO with 495 μL AN. S9 solutions were prepared by diluting the obtained S9 solutions to 1.0 mg/mL in 100 mM potassium phosphate buffer at pH 7.4 containing 10 mM D-saccharic acid-1,4-lactone. An Apricot automation workstation was used to add 100 μL/well of S9 solution to all reaction plates (Blank, T0, T5, T15, T30, T45, T60 and NCF60); 2 μL/well of compound working solutions were added to all 96-well reaction plates except the blank (T0, T5, T15, T30, T45, T60, and NCF60); 600 μL/well of stop solution (4° C. ACN containing 200 ng/mL tolbutamide and 200 ng/mL labetalol as internal standards) was added to the T0 reaction plate; all plates were pre-incubated at 37° C. for 10 minutes; a cofactor regenerating system (98 μL/well) was added, excluding the NCF60 plate which instead received 98 μL/well of 100 mM potassium phosphate buffer. All plates were then incubated at 37° C. To terminate reactions, 600 μL/well of stop solution was applied at specific end time points. After sealing and a 10-minute shaking, plates were centrifuged at 4000 rpm and 4° C. for 20 minutes. […]

[2] = Intestinal stability, human intestinal S9; type: in vitro ADME
Method: (§1) The stability of compounds 1 and 2, and the control compound 7-hydroxycoumarin, were measured using human, rat, and mouse intestinal S9 fractions (Xenotech). Test compound working solutions were prepared by diluting 5 μL of 10 mM stock solutions in DMSO with 495 μL AN. S9 solutions were prepared by diluting the obtained S9 solutions to 1.0 mg/mL in 100 mM potassium phosphate buffer at pH 7.4 containing 10 mM D-saccharic acid-1,4-lactone. An Apricot automation workstation was used to add 100 μL/well of S9 solution to all reaction plates (Blank, T0, T5, T15, T30, T45, T60 and NCF60); 2 μL/well of compound working solutions were added to all 96-well reaction plates except the blank (T0, T5, T15, T30, T45, T60, and NCF60); 600 μL/well of stop solution (4° C. ACN containing 200 ng/mL tolbutamide and 200 ng/mL labetalol as internal standards) was added to the T0 reaction plate; all plates were pre-incubated at 37° C. for 10 minutes; a cofactor regenerating system (98 μL/well) was added, excluding the NCF60 plate which instead received 98 μL/well of 100 mM potassium phosphate buffer. All plates were then incubated at 37° C. To terminate reactions, 600 μL/well of stop solution was applied at specific end time points. After sealing and a 10-minute shaking, plates were centrifuged at 4000 rpm and 4° C. for 20 minutes. Concurrently, 300 μL/well of HPLC grade water was loaded onto eight new 96-well bioanalysis plates. Post-centrifugation, 100 μL supernatant from each reaction plate was transferred to its corresponding bioanalysis plate, shaken for 10 minutes, and then subjected to LC-MS/MS analysis (Shimadzu LC-40D LC system coupled to a Sciex Qtrap 6500 Plus mass spectrometer, using both positive and negative ion modes).

[3] = Thermodynamic solubility in FaSSIF; type: physicochemical; conditions: thermodynamic from solid, room temperature, 24 hours shaking
Method: After shaking, the samples were centrifuged at 25° C. for 20 minutes at 4000 rpm. Filtrates were prepared using the Whatman Mini-UniPrep Syringeless Filter Device (PTFE filter media with polypropylene housing, pore size 0.45 μm) from Cytiva, and dilutions were performed as required. Quantification of all samples was carried out using an LC-UV system.

[4] = Stability in simulated gastric fluid (SGF); type: in vitro ADME; conditions: SGF pH 1.2, 37° C., 2 μM
Method: The stability of compounds 1 to 4, and the control compound omeprazole, were measured in simulated gastric fluid (SGF: 0.2% w/v sodium chloride, 0.7% v/v hydrochloric acid, and 0.32% w/v pepsin in deionized water, pH 1.2±0.05). Stock solutions of the compounds (10 mM) were diluted to 200 μM in DMSO, then duplicate 2 μL aliquots added to 96-well plates for time points 0, 1, 2, 6, and 24 hours. SGF (198 μL) was added to all wells except those for time 0, to give a starting compound concentration of 2 μM; and the samples were incubated at 37° C. with agitation at 600 rpm for the prescribed times. After incubation, 200 μL of each sample was extracted and mixed with 400 μL cold ACN containing 200 ng/mL tolbutamide and labetalol as internal standards. The samples were centrifuged at […] for 20 minutes at 4° C., and the supernatants (60 μL) each diluted with purified water (180 μL) for LC/MS/MS analysis. The percentage of the test compound remaining at each time point was calculated based on the ratio of the peak area of the analyte to the internal standards.

[5] = Pharmacokinetics in the rat, dosing in solution; conditions: in vivo
[6] = Intestinal stability, rat intestinal S9; type: in vitro ADME
Method: as §1

[7] = Intestinal stability, mouse intestinal S9; type: in vitro ADME; conditions: intestinal S9 fraction
Method: as §1

[8] = test system: patients with bladder cancer; conditions: 300 and 600 mg daily for 21 days; cited from earlier work
[9] = molecular target: G protein-coupled estrogen receptor (Homo sapiens, UniProt Q99527); conditions: cited from earlier work
[10] = test system: wild-type mice fed a high fat diet; test: Genistein in wild-type mice fed a high fat diet; type: in vivo, mouse; conditions: high fat diet 12 weeks, then intraperitoneal 200 mg/Kg genistein in corn oil for 14 days
[11] = log P; type: physicochemical
[12] = test system: rat model of monocrotaline-induced pulmonary hypertension; conditions: Matori et al.; cited from earlier work
[13] = test system: healthy volunteers; conditions: amorphous solid dispersion, single doses 500 to 3000 mg, then 3000 mg over six consecutive days; cited from earlier work
[14] = test system: rats with cerulein (AEP) or sodium taurocholate (ANP) induced pancreatitis; conditions: Xia et al.; cited from earlier work
[15] = test system: mice with L-arginine induced acute pancreatitis; conditions: Siriviriyakul et al., cited from earlier work
[16] = test system: Db/Db mice fed a high fat diet; test: Genistein in Db/Db mice fed a high fat diet; type: in vivo, mouse; conditions: high fat diet 6 weeks, then oral gavage 50 mg/Kg genistein in corn oil for 47 days
[17] = test system: mdx mice; conditions: Messina et al., cited from earlier work
[18] = test system: postmenopausal women; conditions: 54 mg per day, cited from earlier work
[19] = test system: children with Sanfillipo syndrome; conditions: 160 mg/kg/day for 12 months, median age 7.2 years; cited from earlier work
[20] = molecular target: transthyretin tetramer (TTR) (Homo sapiens, UniProt P02766); conditions: Green et al.; cited from earlier work
[21] = test system: transthyretin tetramer (TTR); conditions: Green et al.; cited from earlier work
[22] = Pharmacokinetics in the rat, solid form (powder in mini-capsules); type: in vivo
[23] = Wang et al.; cited from earlier work
[24] = intestinal S9 fraction, pH 7.4, read-out: intrinsic clearance rate
[25] = solid form, genistein 71 mg/Kg together with 14.2 mg/Kg inulin

Chain of G protein-coupled estrogen receptor (Q99527 whole entry): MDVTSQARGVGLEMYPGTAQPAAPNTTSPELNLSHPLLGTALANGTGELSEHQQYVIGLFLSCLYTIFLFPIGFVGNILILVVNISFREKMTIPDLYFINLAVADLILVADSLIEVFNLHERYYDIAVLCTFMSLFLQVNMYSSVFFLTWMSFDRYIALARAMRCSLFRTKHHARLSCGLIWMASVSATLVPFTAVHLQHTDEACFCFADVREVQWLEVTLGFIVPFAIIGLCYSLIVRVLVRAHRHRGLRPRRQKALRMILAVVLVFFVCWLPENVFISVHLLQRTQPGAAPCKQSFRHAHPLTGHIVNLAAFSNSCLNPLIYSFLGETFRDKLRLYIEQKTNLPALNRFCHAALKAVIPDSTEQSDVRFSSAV

Compound: O=c1c(-c2ccc(OCOP(=O)(O)O)cc2)coc2cc(O)cc(O)c12 [Compound 1, (4-(5,7-Dihydroxy-4-oxo-4H-chromen-3-yl)phenoxy)methyl dihydrogen phosphate]
- formation of glucuronidation, sulfation, and glutathione conjugates [1]: noticeable absence
- normalized control factor remaining [2]: 24.9%
- half-life at 1 µM ([2]; intestinal S9 fraction, pH 7.4): 28.7 min
- microsomal CLint at 1 µM [2, 24]: 48.4 µL/min/mg
- solubility at 24 h ([3]; read-out: Solubility): 12.5 mM
- solubility at 24 h ([3]; read-out: Solubility (μg/mL)): 4770 µg/mL
- Percentage remaining at time: 1 hour [4]: 94.4%
- Percentage remaining at time: 2 hours [4]: 91.5%
- Percentage remaining at time: 6 hours [4]: 83.8%
- Percentage remaining at time: 24 hours [4]: 42.1%
- Percentage remaining at time: 0 [4]: 100%
- Cmax ([5]; male, SD, rat, 25 mg/kg): ~0.015 µg/mL
- Tmax ([5]; male, SD, rat, 25 mg/kg): ~8 min
- decline of plasma concentration of dosed compound ([5]; rat, 25 mg/kg): very rapid decline in concentration
- normalized control factor remaining [6]: 30.4%
- half-life at 1 µM ([6]; intestinal S9 fraction, pH 7.4): 2.6 min
- microsomal CLint at 1 µM [6, 24]: 526 µL/min/mg
- half-life at 1 µM ([7]; pH 7.4): 29.7 min
- microsomal CLint at 1 µM ([7]; pH 7.4, read-out: intrinsic clearance rate): 46.7 µL/min/mg

Compound: O=c1c(-c2ccc(OCOP(=O)(O)O)cc2)coc2cc(OCOP(=O)(O)O)cc(O)c12 [Compound 3, ((5-Hydroxy-4-oxo-3-(4-((phosphonooxy)methoxy)phenyl)-4H-chromen-7-yl)oxy)methyl dihydrogen phosphate]
- solubility at 24 h ([3]; read-out: Solubility): 10.2 mM
- solubility at 24 h ([3]; read-out: Solubility (μg/mL)): 5000 µg/mL
- Percentage remaining at time: 1 hour [4]: 95.1%
- Percentage remaining at time: 2 hours [4]: 101%
- Percentage remaining at time: 6 hours [4]: 96.1%
- Percentage remaining at time: 24 hours [4]: 51.4%
- Percentage remaining at time: 0 [4]: 100%

Compound: CC(C)(CCCOP(=O)(O)O)C(=O)Oc1ccc(-c2coc3cc(O)cc(O)c3c2=O)cc1 [Compound 4, 4-(5,7-Dihydroxy-4-oxo-4H-chromen-3-yl)phenyl 2,2-dimethyl-5-(phosphonooxy)pentanoate]
- solubility at 24 h ([3]; read-out: Solubility): 0.612 mM
- solubility at 24 h ([3]; read-out: Solubility (μg/mL)): 293 µg/mL
- Percentage remaining at time: 1 hour [4]: 104%
- Percentage remaining at time: 2 hours [4]: 110%
- Percentage remaining at time: 6 hours [4]: 114%
- Percentage remaining at time: 24 hours [4]: 106%
- Percentage remaining at time: 0 [4]: 100%

Compound: O=c1c(-c2ccc(O)cc2)coc2cc(O)cc(O)c12 [Genistein, 5,7-dihydroxy-3-(4-hydroxyphenyl)-4H-chromen-4-one]
- tolerability [8]: well tolerated, with no to mild side effects
- affinity, agonist of G protein-coupled estrogen receptor [9]: 133 nM
- reduction of fasting blood glucose [10]: ~30%
- logP [11]: 3.04
- monocrotaline-induced preexisting PH [12]: reversed
- progression of severe PH to right heart failure [12]: prevented
- right ventricular ejection fraction [12]: restoring
- right ventricular pressure [12]: reducing
- adverse effects [13]: No significant adverse effects were reported, other than instances of diarrhea, headache or nausea at the highest dosages
- necrosis, edema and inflammatory infiltration compared to the experimental models [14]: mitigated
- edema, necrosis and cell death induced by L-arginine ([15]; 10 mg/Kg/day and 100 mg/Kg/day): significantly reducing
- serum amylase, IL-6 and CRP levels ([15]; 10 mg/Kg/day and 100 mg/Kg/day): significantly reduced
- NF-κB and 4-HNE expression [15]: curbing
- reduction of HbA1C [16]: ~37%
- reduction of fasting blood glucose [16]: ~57%
- solubility at 24 h ([3]; read-out: Solubility): 0.027 mM
- solubility at 24 h ([3]; read-out: Solubility (μg/mL)): 7.29 µg/mL
- markers of oxidative stress [17]: reduced
- muscle necrosis [17]: reduced
- muscle regeneration [17]: enhanced
- serum creatine-kinase levels [17]: reduced
- forelimb strength and strength normalized to weight ([17]; five-week old mdx mice, five weeks, daily or 3-times/week): increased
- bone mineral density at femoral neck and lumbar spine ([18]; after 36 months): greater increases
- mammographic breast density, endometrial thickness, expression of BRCA1 and BRCA2 ([18]; after 36 months): no significant changes
- sister chromatid exchange compared to placebo ([18]; after 36 months): reducing
- discomfort or adverse events between participants [18]: No differences
- adverse effects [19]: No treatment-specific severe adverse effects were reported
- AUC(0-t) ([5]; solution, 25 mg/Kg nominal, fasted male SD rat, read-out: mean AUC0-last of dosed compound in plasma): ~0.5 µg·h/mL
- Cmax ([5]; solution, 25 mg/Kg nominal, fasted male SD rat, read-out: mean cmax of dosed compound in plasma): ~0.3 µg/mL
- half-life ([5]; solution, 25 mg/Kg nominal, fasted male SD rat, read-out: mean t1/2 of dosed compound in plasma (converted)): ~78 min
- Tmax ([5]; solution, 25 mg/Kg nominal, fasted male SD rat, read-out: mean tmax of dosed compound in plasma (converted)): 10 min
- acid-mediated fibril formation, of that exhibited by TTR alone [20]: < 10%
- binding to TTR in plasma over all of the other plasma proteins [20]: highly selective binding
- amyloidogenesis of TTR mutations V30M and V122I [21]: inhibits
- AUC(0-t) ([22]; male, SD, rat, in vivo, po, 71 mg/kg, solid form, genistein 71 mg/Kg alone, considerable variability, read-out: mean AUC0-last of dosed compound in plasma): ~0.5 µg·h/mL
- AUC(0-t) ([22]; male, SD, rat, in vivo, po, 71 mg/kg, solid form, genistein 71 mg/Kg together with 14.2 mg/Kg inulin, read-out: mean AUC0-last with addition of inulin): ~0.3 µg·h/mL
- Cmax ([22]; male, SD, rat, in vivo, po, 71 mg/kg, read-out: mean cmax of dosed compound in plasma): ~0.16 µg/mL
- Tmax ([22]; male, SD, rat, in vivo, po, 71 mg/kg, read-out: mean tmax of dosed compound in plasma): ~180 min
- half-life ([22]; male, SD, rat, in vivo, po, read-out: mean t1/2 of dosed compound in plasma (converted)): ~120 min
- effect of inulin on the peak [22, 25]: slightly reducing
- time of peak with addition of inulin [22, 25]: around 5 hours

Compound: O=c1c(-c2ccc(O)cc2)coc2cc(OP(=O)(O)O)cc(O)c12 [Genistein-7-O-phosphate, genistein 7-O-phosphate, reference compound]
- bioavailability [23]: more bioavailable than aglyconic genistein
- water solubility [23]: practically water soluble
- solubility at 24 h ([3]; read-out: Solubility): 3.57 mM
- solubility at 24 h ([3]; read-out: Solubility (μg/mL)): 1250 µg/mL

Compound: COc1ccc2[nH]c([S+]([O-])Cc3ncc(C)c(OC)c3C)nc2c1 (centres unmarked) [Omeprazole, omeprazole, reference compound]
- Percentage remaining at time: 1 hour [4]: 35.4%
- Percentage remaining at time: 2 hours [4]: 23.1%
- Percentage remaining at time: 6 hours [4]: 4.2%
- Percentage remaining at time: 24 hours [4]: 0%
- Percentage remaining at time: 0 [4]: 100%
